US10233179B2, “Thiazoles and uses thereof” (AbbVie Inc., priority 2013, dated 2019)

What was measured:
HEp-2 cells = assay: Cytotoxicity assay (MTT) in parallel with the antiviral assay; format: cell-based
Method: HEp-2 cells and RSV (Group A, Long Strain) were obtained from the American Type Culture Collection (Manassas, Va.). Cytotoxicity of the compounds was determined in experiments done in parallel with the antiviral assays. To do this, 100 μL of assay medium was added to the wells of HEp-2 cells pretreated with 100 μL serially diluted compounds as described above. After 4 days of incubation, the viability of the cells was determined by the MTT assay in the same way as detailed in the “Antiviral Assay” method. Results were expressed as 50% toxicity dose (TD50) values. Compounds were tested to determine both their antiviral and toxicity to determine their therapeutic window. Determination of the EC50 and TD50 of these active compounds were repeated one additional time to confirm the window.

[1] = system: RSV (Group A, Long Strain); assay: Antiviral cytopathic effect (CPE) protection assay, MTT readout; format: cell-based; settings: human respiratory syncytial virus, 96 h; HEp-2 cells, 0.2 MOI RSV, 4 days incubation, protection from CPE by MTT
Method: HEp-2 cells and RSV (Group A, Long Strain) were obtained from the American Type Culture Collection (Manassas, Va.).
A cytopathic effect (CPE) protection assay was performed to determine the ability of a compound to protect the cells from viral infection and thus the CPE induced by viral infection. 96-Well plates were first seeded with 3×10^3 HEp-2 cells per well in Dulbecco's modified Eagle's medium (DMEM) containing 10% fetal bovine serum (FBS). One day after the cells were seeded, they were preincubated with serial dilutions of compounds prepared in 100 μL assay medium (DMEM mixed with F12 medium at a 1:1 ratio, supplemented with 2% FBS and 1 mM sodium pyruvate) for 1 hour at 37° C. 100 μL of assay medium containing 0.2 multiplicity of infection (MOI) of RSV was then added to each well of cells. In addition to wells containing infected cells incubated with compounds, each plate also contained replicates of two kinds of controls: (1) Virus control contained cells infected with 0.2 MOI of RSV in assay medium, (2) Uninfected cell control contained cells incubated with assay medium only. After 4 days of incubation at 37° C., the viability of cells was assessed using MTT (Thiazolyl blue tetrazolium bromide, Sigma). A stock solution of MTT, at a concentration of 4 mg/mL in phosphate-buffered saline, was added to all wells at 25 μL per well. Plates were further incubated for 4 hours, and each well was then treated with 50 μL of a solution containing 20% sodium dodecyl sulfate (SDS) and 0.02 N HCl. After an overnight incubation, the plates were measured on a BioTek® microtiter plate reader at wavelengths of 570 nm and 650 nm. The MTT detection is based on the fact that viable (uninfected) cells can reduce the tetrazolium salts into colored formazan products, which can then be quantitated by spectrometry. Based on the spectrometric absorbance of each sample, the percent of protection from CPE, which is an indicator of protection from viral infection, can be calculated for each compound and the 50% effective concentrations (EC50) can be calculated using a nonlinear regression curve fitting equation provided by the GraphPad Prism® 4 software.
Compounds were tested to determine both their antiviral and toxicity to determine their therapeutic window. Determination of the EC50 and TD50 of these active compounds were repeated one additional time to confirm the window.

[2] = uninfected HEp-2 cells, 4 days incubation, MTT viability

Compound | MTT TD50 (HEp-2 cells; [2]) [µM] | EC50 [1] [nM] | MTT TD50 (HEp-2 cells; human, 4 days) [µM]
FC1(F)CCC(CN(Cc2cccn2-c2nccs2)Cc2cccn2-c2nccs2)CC1 [Example 57, 1-(4,4-difluorocyclohexyl)-N,N-bis{[1-(1,3-thiazol-2-yl)-1H-pyrrol-2-yl]methyl}methanamine] | 20 | 310 | –
c1ccc(CN(Cc2cccn2-c2nncs2)Cc2cccn2-c2nncs2)cc1 [Example 10, 1-phenyl-N,N-bis{[1-(1,3,4-thiadiazol-2-yl)-1H-pyrrol-2-yl]methyl}methanamine] | 97 | 520 | –
COc1ccccc1CN(Cc1cccn1-c1nccs1)C(C)c1cnn(-c2cccc(F)c2)c1C (stereo not drawn) [Example 4, 1-[1-(3-fluorophenyl)-5-methyl-1H-pyrazol-4-yl]-N-(2-methoxybenzyl)-N-{[1-(1,3-thiazol-2-yl)-1H-pyrrol-2-yl]methyl}ethanamine] | 0.48 | > 480 | –
Cc1c(C(C)N(Cc2cccn2-c2nccs2)Cc2cccn2-c2nccs2)cnn1-c1cccc(F)c1 (racemic) [Example 1, 1-[1-(3-fluorophenyl)-5-methyl-1H-pyrazol-4-yl]-N,N-bis{[1-(1,3-thiazol-2-yl)-1H-pyrrol-2-yl]methyl}ethanamine] | 11 | 120 | –
Clc1ccccc1CN(Cc1cccn1-c1nncs1)Cc1cccn1-c1nncs1 [Example 18, 1-(2-chlorophenyl)-N,N-bis{[1-(1,3,4-thiadiazol-2-yl)-1H-pyrrol-2-yl]methyl}methanamine] | >32 | 62 | –
Clc1ccccc1CN(Cc1cccn1-c1nccs1)Cc1cccn1-c1nccs1 [Example 47, 1-(2-chlorophenyl)-N,N-bis{[1-(1,3-thiazol-2-yl)-1H-pyrrol-2-yl]methyl}methanamine] | 7.0 | 15 | –
Cc1ccccc1CN(Cc1cccn1-c1nncs1)Cc1cccn1-c1nncs1 [Example 12, 1-(2-methylphenyl)-N,N-bis{[1-(1,3,4-thiadiazol-2-yl)-1H-pyrrol-2-yl]methyl}methanamine] | >10 | 64 | –
CC(Cc1cccs1)N(Cc1cccn1-c1nncs1)Cc1cccn1-c1nncs1 (stereo not drawn) [Example 25, N,N-bis{[1-(1,3,4-thiadiazol-2-yl)-1H-pyrrol-2-yl]methyl}-1-(thiophen-2-yl)propan-2-amine] | – | 7500 | 55
N#Cc1cc(CN(Cc2cccn2-c2nncs2)Cc2cccn2-c2nncs2)cs1 [Example 28, 4-[(bis{[1-(1,3,4-thiadiazol-2-yl)-1H-pyrrol-2-yl]methyl}amino)methyl]thiophene-2-carbonitrile] | >100 | 760 | –
CC(c1ccc(Cl)c(Cl)c1)N(Cc1cccn1-c1nncs1)Cc1cccn1-c1nncs1 (stereo not drawn) [Example 17, 1-(3,4-dichlorophenyl)-N,N-bis{[1-(1,3,4-thiadiazol-2-yl)-1H-pyrrol-2-yl]methyl}ethanamine] | >32 | 15000 | –
Fc1ccccc1CN(Cc1cccn1-c1nccs1)Cc1cccn1-c1nccs1 [Example 40, 1-(2-fluorophenyl)-N,N-bis{[1-(1,3-thiazol-2-yl)-1H-pyrrol-2-yl]methyl}methanamine] | 6.3 | 18 | –
C[C@@H](c1ccccc1Cl)N(Cc1cccn1-c1nncs1)Cc1cccn1-c1nncs1 [Example 20, (1S)-1-(2-chlorophenyl)-N,N-bis{[1-(1,3,4-thiadiazol-2-yl)-1H-pyrrol-2-yl]methyl}ethanamine] | >32 | 360 | –
Cc1ccccc1CN(Cc1cccn1-c1nccs1)Cc1cccn1-c1nccs1 [Example 37, 1-(2-methylphenyl)-N,N-bis{[1-(1,3-thiazol-2-yl)-1H-pyrrol-2-yl]methyl}methanamine] | 7.1 | 33 | –
FC(F)(F)c1cccc(CN(Cc2cccn2-c2nccs2)Cc2cccn2-c2nccs2)c1 [Example 44, 1-[1-(1,3-thiazol-2-yl)-1H-pyrrol-2-yl]-N-{[1-(1,3-thiazol-2-yl)-1H-pyrrol-2-yl]methyl}-N-[3-(trifluoromethyl)benzyl]methanamine] | 38 | 120 | –
c1cnnc(N(Cc2cccn2-c2nccs2)Cc2cccn2-c2nccs2)c1 [Example 50, N,N-bis{[1-(1,3-thiazol-2-yl)-1H-pyrrol-2-yl]methyl}pyridazin-3-amine] | >100 | > 100000 | –
